Data as given in patent publication US11707447B1.

What was measured:
in vitro = in vitro ADME, human
Description: (§1) A fundamental evaluation in drug development is the assessment of absorption, distribution, metabolism, excretion, and pharmacokinetics (ADME/PK) (Eddershaw et al., 2000, Drug Discovery Today 5(9): 409-414). […] Drug stability upon exposure to human liver microsomes and liver S9 cellular fractions is a common in vitro assay to approximate in vivo, liver-based drug metabolism (Richardson et al., 2016 Drug Metabolism Letters 10:83-90). First-pass metabolism is also often approximated in vitro using intestinal microsome and cellular S9 fractions (Hatley et al., 2017, Biopharmaceuticals & Drug Disposition, 38(2):155-160). Further, it is well known that human serum, and particularly circulating serum esterases can contribute to systemic drug metabolism (Williams, F M 1987, Pharmacology and Therapeutics, 34:99-109). Many pharmacological agents are classified as prodrugs, as they undergo metabolic transformation in vivo upon administration to release the active drug compound into the systemic compartment (Zawilska J B, et al. 2013, Pharmacological Reports, 65:1-14). Psilocybin, a serotonergic psychedelic agent, is well known prodrug that is metabolized into the psychoactive product, psilocin (Dinis-Oliveira, R J 2017, Drug Metabolism Reviews, 49(1):84-91). To evaluate the capacity of test molecules to similarly serve as prodrugs of psilocin, time-dependent, metabolic stability assays using human AB serum, human intestinal microsomes (HIM), human intestinal S9 fractions (HIS9), human liver microsomes (HLM), human liver S9 fractions (HLS9), human alkaline phosphatase, and porcine esterase were performed. […] Liquid chromatography coupled mass spectrometry (LC-MS) was employed to track the conversion of the test molecules into psilocin. All intestinal and liver fractions and NADPH RapidStart reagent was purchased from Sekisui/XenoTech. Human AB serum was purchased from Sigma. For intestine and liver metabolism assays, 2.5 μM candidate compounds were incubated in 400 μg/ml of each cellular fraction (HLM, HLS9, HIM, or HIS9) in 50 mM potassium phosphate buffer (pH 7.4) containing 3 mM MgCl2 and 1 mM EDTA supplemented with NADPH RapidStart at 37° C. Samples were taken at the start of the assay, and at every 20 minutes for 2 hours. Time-point samples were precipitated with 1:1 volume of acetonitrile to quench the reaction before centrifugation at 4000×g for 20 minutes. Supernatants were analyzed for the presence of candidate prodrugs (parent molecule) and psilocin (the predicted metabolite) using Orbitrap LC-MS (Thermo Scientific) using previously described methods (Menéndez-Perdomo et al., 2021, J. Mass Spectrom., 56: e4683). The serum assays were carried out in 10% human AB serum in 50 mM potassium phosphate buffer (pH 7.4) containing 3 mM MgCl2 and 1 mM EDTA. Bovine alkaline phosphatase assays were carried out using one unit of purified enzyme in 50 mM potassium phosphate buffer (pH 7.4) containing 3 mM MgCl2 and 1 mM EDTA. Porcine esterase assays were carried out using one unit of purified enzyme in 50 mM potassium phosphate buffer (pH 7.4) containing 3 mM MgCl2 and 1 mM EDTA. Assay concentrations (μM) of both parent ‘prodrug’ molecule and psilocin metabolite, as quantified through LC-MS using routine standard curve procedures, were plotted as functions of assay time (minutes). The metabolism rate (T1/2) was determined from the metabolism curve plot using the one phase decay feature of GraphPad PRISM software (Version 9.2.0). The quantity of parent prodrug at time zero was set as 100%.
Positive controls were first tested to ensure that assays were functioning properly.

[1] = In vitro metabolic stability / psilocin release, human AB serum; assay type: in vitro ADME; conditions: AB serum
Description: as §1, with “For intestine and liver metabolism assays, 2.5 μM candidate compounds were incubated in 400 μg/ml of each cellular fraction (HLM, HLS9, HIM, or HIS9) in 50 mM potassium phosphate buffer (pH 7.4) containing 3 mM MgCl2 and 1 mM EDTA supplemented with NADPH RapidStart at 37° C. Samples were taken at the start of the assay, and at every 20 minutes for 2 hours. Time-point samples were precipitated with 1:1 volume of acetonitrile to quench the reaction before centrifugation at 4000×g for 20 minutes.” left out, “The serum assays were carried out in 10% human AB serum in 50 mM potassium phosphate buffer (pH 7.4) containing 3 mM MgCl2 and 1 mM EDTA. Bovine alkaline phosphatase assays were carried out using one unit of purified enzyme in 50 mM potassium phosphate buffer (pH 7.4) containing 3 mM MgCl2 and 1 mM EDTA. Porcine esterase assays were carried out using one unit of purified enzyme in 50 mM potassium phosphate buffer (pH 7.4) containing 3 mM MgCl2 and 1 mM EDTA.” left out, “100%. […]” for “100%.”

5-HT2A receptor [2] = biological target: T1, 5-HT2A receptor (Mus musculus, UniProt P35363); assay: Drug-induced Head Twitch Response (HTR) in mice; assay type: in vivo; conditions: 1 mg/kg i.p., 15-to-30-minute window after dosing, vs vehicle
T1 construct: tissue Charles River; host or cells: whole animal, C57BL/6-Elite mice (brain neurons)

[3] = Mouse pharmacokinetic (PK) evaluation of drug metabolism to psilocin; conditions: mean ± SD
5-HT1A receptor = biological target: T2, 5-HT1A receptor (Homo sapiens, UniProt P08908); assay: cAMP-Glo assay in +5-HT1A / -5-HT1A CHO-K1 cells; assay type: cell-based; conditions: forskolin-stimulated +5-HT1A vs -5-HT1A cells, increasing ligand
T2 construct: host or cells: CHO-K1 (co-expressing Ga15)
T2 sequence (P08908 1-422): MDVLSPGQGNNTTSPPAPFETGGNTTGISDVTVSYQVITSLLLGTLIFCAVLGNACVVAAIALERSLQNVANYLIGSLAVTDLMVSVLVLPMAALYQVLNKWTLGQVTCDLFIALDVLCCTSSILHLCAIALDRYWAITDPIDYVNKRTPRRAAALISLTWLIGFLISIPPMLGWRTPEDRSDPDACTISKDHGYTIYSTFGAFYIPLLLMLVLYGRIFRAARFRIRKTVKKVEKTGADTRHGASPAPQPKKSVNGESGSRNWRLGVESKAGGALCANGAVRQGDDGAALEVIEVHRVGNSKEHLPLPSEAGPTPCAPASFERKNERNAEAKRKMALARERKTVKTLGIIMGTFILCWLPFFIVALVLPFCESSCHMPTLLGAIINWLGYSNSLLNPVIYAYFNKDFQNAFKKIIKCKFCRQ

5-HT2A receptor [4] = biological target: 5-HT2A receptor (Homo sapiens, UniProt P28223); assay: [3H]ketanserin competition radioligand binding assay (SPA); conditions: control ligands
[5] = 1 mg/kg oral of administered compound
[6] = 3 mg/kg oral of administered compound
[7] = 10 mg/kg oral of administered compound

Chain of 5-HT2A receptor (Homo sapiens, UniProt P28223) (P28223 whole entry): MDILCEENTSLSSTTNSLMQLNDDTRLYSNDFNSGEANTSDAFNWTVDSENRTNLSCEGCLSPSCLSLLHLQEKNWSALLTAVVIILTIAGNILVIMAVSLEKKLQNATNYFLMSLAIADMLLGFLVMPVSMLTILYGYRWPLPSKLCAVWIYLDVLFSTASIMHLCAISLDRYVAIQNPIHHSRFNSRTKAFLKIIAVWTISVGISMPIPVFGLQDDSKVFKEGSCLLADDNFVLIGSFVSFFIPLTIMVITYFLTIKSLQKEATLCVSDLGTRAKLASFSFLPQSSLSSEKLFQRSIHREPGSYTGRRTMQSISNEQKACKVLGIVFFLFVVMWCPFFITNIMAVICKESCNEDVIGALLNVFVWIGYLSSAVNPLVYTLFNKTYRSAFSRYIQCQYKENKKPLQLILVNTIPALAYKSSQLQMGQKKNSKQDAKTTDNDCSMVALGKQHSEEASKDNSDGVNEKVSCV
T1 sequence (P35363 whole entry): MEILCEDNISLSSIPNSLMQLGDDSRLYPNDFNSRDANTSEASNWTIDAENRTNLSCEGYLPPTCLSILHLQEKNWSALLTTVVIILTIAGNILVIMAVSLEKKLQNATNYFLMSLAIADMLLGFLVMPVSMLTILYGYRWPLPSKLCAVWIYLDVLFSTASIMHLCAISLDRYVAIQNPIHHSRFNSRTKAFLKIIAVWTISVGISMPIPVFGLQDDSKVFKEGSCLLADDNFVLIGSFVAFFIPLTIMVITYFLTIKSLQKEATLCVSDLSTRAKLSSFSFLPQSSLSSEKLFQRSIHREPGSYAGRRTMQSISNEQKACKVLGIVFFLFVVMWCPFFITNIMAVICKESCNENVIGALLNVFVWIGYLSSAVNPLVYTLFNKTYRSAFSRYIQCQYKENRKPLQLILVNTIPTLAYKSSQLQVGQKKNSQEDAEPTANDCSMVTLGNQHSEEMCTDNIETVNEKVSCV

In the case of `CN(C)CCc1c[nH]c2cccc(OC(=O)OCc3ccccc3)c12` [B(II), reference compound], the “metabolic stability / conversion to psilocin (in words)” value (shortened to “metabolic stability / conversion”) (in vitro; HLM) is reported as “did not readily dissociate to psilocin under any conditions”, the “metabolic stability / conversion” value (in vitro; HLS9) is reported as “did not readily dissociate to psilocin under any conditions” and the “metabolic stability / conversion” value [1] is reported as “failed completely to dissociate”. For the same compound, the “Head Twitch Response (in words)” value (5-HT2A receptor [2]) was “elicit head twitching”, the “Plasma concentration of psilocin” value ([3]; 1 mg/kg oral of administered compound, 0.25 h) was 19.7 ± 5.50 ng/mL and the “Plasma concentration of psilocin” value ([3]; 1 mg/kg oral of administered compound, 0.5 h) was 11.9 ± 2.03 ng/mL. The “Plasma concentration of psilocin” value ([3]; 1 mg/kg oral of administered compound, 1 h) was 4.63 ± 0.788 ng/mL, the “Plasma concentration of psilocin” value ([3]; 1 mg/kg oral of administered compound, 2 h) was 2.20 ± 0.850 ng/mL and the “Plasma concentration of psilocin” value ([3]; 1 mg/kg oral of administered compound, 4 h) was 2.05 ± 0.359 ng/mL. The “Plasma concentration of psilocin” value ([3]; 1 mg/kg oral of administered compound, 6 h) was 0.739 ± 0.288 ng/mL, the “Plasma concentration of psilocin” value ([3]; 1 mg/kg oral of administered compound, 8 h) was 0.453 ± 0.0460 ng/mL and the “AUC0-tlast/Dose (plasma psilocin)” value [3, 5] was 21.0 ± 1.55 kg·ng·h/mL/mg. The “Cmax/Dose (plasma psilocin)” value [3, 5] was 19.7 ± 5.50 kg·ng/mL/mg, the “Plasma concentration of psilocin” value ([3]; 3 mg/kg oral of administered compound, 0.25 h) was 55.6 ± 8.67 ng/mL and the “Plasma concentration of psilocin” value ([3]; 3 mg/kg oral of administered compound, 0.5 h) was 32.3 ± 4.98 ng/mL. For the same compound, the “Plasma concentration of psilocin” value ([3]; 3 mg/kg oral of administered compound, 1 h) was 9.29 ± 3.05 ng/mL, the “Plasma concentration of psilocin” value ([3]; 3 mg/kg oral of administered compound, 2 h) was 7.67 ± 0.921 ng/mL and the “Plasma concentration of psilocin” value ([3]; 3 mg/kg oral of administered compound, 4 h) was 6.76 ± 2.13 ng/mL. The “Plasma concentration of psilocin” value ([3]; 3 mg/kg oral of administered compound, 6 h) was 2.41 ± 0.845 ng/mL, the “Plasma concentration of psilocin” value ([3]; 3 mg/kg oral of administered compound, 8 h) was 0.722 ± 0.368 ng/mL and the “AUC0-tlast/Dose (plasma psilocin)” value [3, 6] was 20.3 ± 2.78 kg·ng·h/mL/mg. The “Cmax/Dose (plasma psilocin)” value [3, 6] was 18.5 ± 2.89 kg·ng/mL/mg, the “Plasma concentration of psilocin” value ([3]; 10 mg/kg oral of administered compound, 0.25 h) was 306 ± 34.6 ng/mL and the “Plasma concentration of psilocin” value ([3]; 10 mg/kg oral of administered compound, 0.5 h) was 125 ± 16.3 ng/mL. The “Plasma concentration of psilocin” value ([3]; 10 mg/kg oral of administered compound, 1 h) was 49.6 ± 10.5 ng/mL, the “Plasma concentration of psilocin” value ([3]; 10 mg/kg oral of administered compound, 2 h) was 20.7 ± 1.42 ng/mL and the “Plasma concentration of psilocin” value ([3]; 10 mg/kg oral of administered compound, 4 h) was 31.4 ± 6.34 ng/mL. For the same compound, the “Plasma concentration of psilocin” value ([3]; 10 mg/kg oral of administered compound, 6 h) was 11.5 ± 1.43 ng/mL, the “Plasma concentration of psilocin” value ([3]; 10 mg/kg oral of administered compound, 8 h) was 6.38 ± 2.98 ng/mL and the “Plasma concentration of psilocin” value ([3]; 10 mg/kg oral of administered compound, 24 h) was 0.104 ng/mL. For the same compound, the “AUC0-tlast/Dose (plasma psilocin)” value [3, 7] was 28.2 ± 4.12 kg·ng·h/mL/mg and the “Cmax/Dose (plasma psilocin)” value [3, 7] was 30.6 ± 3.46 kg·ng/mL/mg.

With `CN(C)CCc1c[nH]c2cccc(O)c12` [psilocin] the “cAMP level / 5-HT1A receptor modulation (in words)” value (5-HT1A receptor) was “reduction in cAMP levels” and the “5-HT2A competition binding (in words)” value (5-HT2A receptor [4]) was “positive control (binding)”.

In the case of `NCCc1c[nH]c2ccc(O)cc12` [serotonin], the “cAMP level / 5-HT1A receptor modulation (in words)” value (5-HT1A receptor) is reported as “reduction in cAMP levels”.

For `N[C@@H](Cc1c[nH]c2ccccc12)C(=O)O` [tryptophan], the “cAMP level / 5-HT1A receptor modulation (in words)” value (5-HT1A receptor) was “no reduction in cellular cAMP levels” and the “5-HT2A competition binding (in words)” value (5-HT2A receptor [4]) was “negative control (no binding)”.
